{
  "source": "patent US10206894B2",
  "about": "“Compounds for use in treatment of mucositis” (priority 2011, dated 2019)",
  "tested_on": "radiation-induced oral mucositis, left buccal cheek pouch",
  "type": "in vivo",
  "details": "for mean daily mucositis scores vs untreated control (Mann-Whitney Rank-sum), efficacy: topical three times per day",
  "source_text": "In the irradiated hamster cheek pouch model of oral mucositis, the hamster cheek pouch is everted and irradiated to produce a localized mucositis. The progression and resolution of mucositis in the hamster model is very similar to that observed in the human condition and the model has been validated clinically with respect to dosing schedules of therapeutic agents (Murphy et al., Clin. Cancer Res., 2008, 14, 4292-4297; Alvarez et al., Clin. Cancer Res., 2003, 9, 3454-3461; and Schuster et al., J. Clin. Oncol., 2006, 24, 6537). Briefly, on day 0, all animals were given an acute radiation dose directed to their left buccal cheek pouch. Test articles were applied topically to the left pouch three times per day from day 0 to day 20 and mucositis was evaluated clinically starting on day 6, and continued on alternate days until […]. Study endpoints were mucositis score, weight change and survival. Mucositis was scored visually by comparison to a validated photographic scale. The scale ranges from 0 for normal, to 5 for severe ulceration. The clinical mucositis score of 3 in hamsters indicates the presence of an ulcer. In terms of the syndrome, it is believed that the dose-limiting chemotherapeutic- or radiation-induced pain is associated with frank ulceration; therefore a compound that prevents ulceration in the model might have utility in the clinical setting.\nTo evaluate mucositis severity, animals were anesthetized with an inhalation anesthetic, and the left cheek pouch everted. Mucositis was scored visually by comparison to a validated photographic scale. The scale ranges from 0 for normal, to 5 for severe ulceration. In descriptive terms, this scale is defined as follows: […]\nA score of 1-2 is considered to represent a mild stage of injury, whereas a score of 3-5 is considered to indicate moderate to severe mucositis. In terms of the syndrome, it is believed that the dose-limiting chemotherapeutic- or radiation-induced pain is associated with frank ulceration; therefore a compound that prevents ulceration in the model might have utility in the clinical setting. In the hamster model, a clinical mucositis score of 3 indicates the presence of an ulcer and the duration of scores of 3 or greater is used as a primary measurement of efficacy in mucositis treatment. Ulceration is the point in the development of mucositis where the physical integrity of the oral mucosa is breached. In the clinic, a patient presenting with severe oral ulcerations may require hospitalization for analgesic, narcotic and/or antibiotic therapies or fluid support.\nOn day 0, all animals were given an acute radiation dose directed to their left buccal cheek pouch. This was accomplished by anesthetizing the animals and everting the left buccal pouch, while protecting the rest of the animals with a lead shield. Test agents were applied topically to the left buccal pouch three times per day from day 0 to day 20. Mucositis was evaluated clinically starting on day 6, and continued on alternate days until day 28. Study endpoints were mucositis score, weight change and survival. Mucositis was scored visually by comparison to a validated photographic scale. No treatment-related deaths were recorded throughout the study. The mean daily percent weight gains were similar in all groups and there were no apparent toxicities in any of the test agent treatment groups. Differences between the ulcerative severity in controls and the treated groups were assessed in two ways. First, mean daily mucositis scores for each group at each time-point were compared with the untreated control group using the Mann-Whitney Rank-sum analysis. […] At 0.3 mg/ml, efficacy was partial early in the treatment period.\nAlternately, ulcerative severity differences between control and treatment groups were assessed by the comparison of the number of days with an ulcer (i.e., a score of 3 or higher) using a chi-squared (χ2) test.",
  "note": "Like-named read-outs stand apart in the source and are kept apart here.",
  "data": [
    {"compound": "N=C(N)NCCCCC(=O)Nc1cc(C(F)(F)F)cc(NC(=O)c2cc(C(=O)Nc3cc(C(F)(F)F)cc(NC(=O)CCCCNC(=N)N)c3OC3CCNC3)ncn2)c1OC1CCNC1", "note": "(centres unmarked) [Compound X]", "values": [
      {"measurement": "mean daily mucositis scores vs untreated control (Mann-Whitney Rank-sum), efficacy", "setting": "0.3 mg/ml, early in the treatment period", "result": "partial"},
      {"measurement": "mean daily mucositis scores vs untreated control (Mann-Whitney Rank-sum), efficacy", "setting": "1, 3 and 10 mg/ml groups, by Day 12 through Day 28", "result": "robust efficacy"},
      {"measurement": "mucositis scores, number of days with an ulcer (score of 3 or higher), chi-squared test vs control", "setting": "1, 3 and 10 mg/ml/dose, p<0.001", "result": "statistically significant improvements"},
      {"measurement": "treatment days with a clinical score ≥3", "setting": "1, 3 and 10 mg/ml/dose, vehicle control 42.7%", "result": "< 5", "unit": "%"},
      {"measurement": "% reduction of animal days with OM scores ≥ 3", "setting": "Acute Radiation", "result": "90.6%-95.3%"},
      {"measurement": "impact of Kleptose on the response (mucositis scores)", "setting": "Kleptose in the vehicle or with 1 mg/kg Compound X", "result": "did not significantly impact the response"},
      {"measurement": "daily mean mucositis scores and number of days animals exhibited ulceration", "setting": "acute radiation model, oral rinse 3 times daily, 28 day treatment regimen", "result": "significantly reduced"},
      {"measurement": "adverse findings in weight gain, general behavior in the home cage, or clinical signs", "setting": "hamster, in vivo", "result": "no adverse findings"}
    ]}
  ]
}
